Test results from patent publication US12384776B2, “Compounds and uses thereof” (Foghorn Therapeutics Inc., priority 2019, dated 2025).

Columns and labels:
Format in all cases: cell-based
[1] = tested on: non-synovial control cancer cell lines (293T, A549, G401); assay: Growth of non-synovial control cancer cell lines, Example 3
Protocol: (§1) Cells were treated with DMSO or the BRD9 degrader, Compound 1, at indicated concentrations, and proliferation was monitored from day 7 to day 14 by measuring confluency over time using an IncuCyte live cell analysis system (FIG. 5). Growth medium and compounds were refreshed every 3-4 days.
(§2) Cells were seeded into 12-well plates and treated with DMSO, 1 μM BRD9 inhibitor, Compound 2 (also known as BI-7273, see Martin et al, J Med Chem. 59(10):4462-4475 (2016); see structure of compound 2 below), or 1 μM BRD9 degrader, Compound 1.
(§3) The number of cells was optimized for each cell line. Growth medium and compounds were refreshed every 3-5 days. SYO1, Yamato, A549, 293T and HS-SY-II cells were fixed and stained at day 11. ASKA cells were fixed and stained at day 23. Staining was done by incubation with crystal violet solution (0.5 g Crystal Violet, 27 ml 37% Formaldehyde, 100 mL 10×PBS, 10 mL Methanol, 863 dH20 to 1 L) for 30 min followed by 3× washes with water and drying the plates for at least 24 h at room temperature. Subsequently plates were scanned on an Odyssey CLx Imaging system (FIG. 6).
(§4) Cells were seeded into 96-well ultra low cluster plate (Costar, #7007) in 200 μL complete media and treated at day 2 with DMSO, Staurosporin, or BRD9 degarder, Compound 1, at indicated doses (FIG. 3C). Media and compounds were changed every 5 d and cell colonies were imaged at day 14.

SYO1 cells [2] = assay: Apoptosis assay (Annexin V-FITC Apoptosis Detection Kit); conditions: 200 nM or 1 μM, 8 days, as compared to DMSO controls
Protocol: (§5) Procedure: SYO1 cells were treated for 8 or 13 days with DMSO, a BRD9 degrader (Compound 1) at 200 nM or 1 μM, or an E3 ligase binder (lenalidomide) at 200 nM. Compounds were refreshed every 5 days. Cell cycle analysis was performed using the Click-iT™ Plus EdU Flow Cytometry Assay (Invitrogen). The apoptosis assay was performed using the Annexin V-FITC Apoptosis Detection Kit (Sigma A9210). Assays were performed according to the manufacturer's protocol.

[3] = tested on: synovial sarcoma cell lines (SYO1, HS-SY-II, and ASKA); assay: Crystal violet growth assay in synovial sarcoma cell lines, Example 4; conditions: for inhibition of the growth of the cells: synovial sarcoma cell lines SYO1, HS-SY-II, ASKA, day 14
Protocol: (§6) Procedure: Cells were seeded into 6-well or 12-well plates and were treated daily with a BRD9 degrader (Compound 1), a bromo-domain BRD9 binder (Compound 2), E3 ligase binder (lenalidomide), DMSO, or staurosporin (positive control for cell killing), at indicated concentrations. The number of cells was optimized for each cell line. Growth media was refreshed every 5 days. By day 14, medium was removed, cells were washed with PBS, and stained using 500 μL of 0.005% (w/v) crystal violet solution in 25% (v/v) methanol for at least 1 hour at room temperature. Subsequently plates were scanned on an Odyssey CLx Imaging system.

[4] = tested on: non-synovial control cancer cell lines (RD, HCT116, and Calu6); assay: Crystal violet growth assay in non-synovial control cancer cell lines, Example 4; conditions: day 14
Protocol: as §6

[5] = tested on: synovial sarcoma cell lines (SYO1, Yamato, HS-SY-II, and ASKA); assay: Growth of synovial sarcoma cell lines (IncuCyte confluency, crystal violet, colony imaging), Example 3
Protocol: as §1, §2, §3, §4

SYO1 cells [6] = assay: Cell cycle analysis (Click-iT Plus EdU Flow Cytometry Assay); conditions: 200 nM or 1 μM, 8 or 13 days, as compared to DMSO and lenalidomide
Protocol: as §5

SMILES | inhibition of the growth of the cells [1] | numbers of early- and late-apoptotic cells (SYO1 cells [2]) | growth inhibition compared with the other treatments ([3]; all synovial cell lines) | inhibition of the growth of the cells [3] | inhibition of the growth of the cells [4] | inhibition of the growth of the cells [5] | numbers of cells in the S-phase of the cell cycle (SYO1 cells [6])
COc1cc(-c2cn(C)c(=O)c3cnccc23)cc(OC)c1CN(C)CC(=O)NCCOCCOCCNc1cccc2c1C(=O)N(C1CCC(=O)NC1=O)C2=O (centres unmarked) [Compound 1] | does not result in inhibition of the growth | increased numbers of early- and late-apoptotic cells | most significant growth inhibition | inhibition of the growth of the cells | did not result in inhibition of the growth | inhibition of the growth of the cells | reduced numbers of cells in the S-phase
COc1cc(-c2cn(C)c(=O)c3cnccc23)cc(OC)c1CN(C)C [Compound 2] | does not result in inhibition of the growth |  |  | inhibition of the growth of the cells | did not result in inhibition of the growth | inhibition of the growth of the cells | 
